{"source": "ChEMBL document CHEMBL5385942", "about": "“C3-Symmetric ligands in drug design: An overview of the challenges and opportunities ahead” (Bioorg Med Chem Lett, 2024)", "key": {"HeLa": {"test_system": "HeLa", "assay": "Cytotoxicity against human HeLa cells assessed as inhibition of cell growth incubated for 24 hrs by MTT assay", "type": "functional, cell-based"}, "[1]": {"assay": "Growth inhibition of human NCI cells", "type": "functional"}, "HepG2": {"test_system": "HepG2", "assay": "Cytotoxicity against human HepG2 cells assessed as inhibition of cell growth incubated for 24 to 48 hrs by MTT assay", "type": "functional, cell-based"}, "MDA-MB-468": {"test_system": "MDA-MB-468", "assay": "Antiproliferative activity against human MDA-MB-468 cells assessed as inhibition of cell growth", "type": "functional, cell-based"}, "Bacillus subtilis": {"test_system": "Bacillus subtilis", "assay": "Antimicrobial activity against Bacillus subtilis MTCC 441 assessed as zone of inhibition by […]", "type": "functional"}, "Escherichia coli": {"test_system": "Escherichia coli", "assay": "Antimicrobial activity against Escherichia coli ATCC 25922 assessed as zone of inhibition by […]", "type": "functional"}, "Micrococcus luteus": {"test_system": "Micrococcus luteus", "assay": "Antimicrobial activity against Micrococcus luteus ATCC 9341 assessed as zone of inhibition by […]", "type": "functional"}, "Pseudomonas aeruginosa": {"test_system": "Pseudomonas aeruginosa", "assay": "Antimicrobial activity against Pseudomonas aeruginosa MTCC 741 assessed as zone of inhibition by […]", "type": "functional, organism-based"}, "Staphylococcus aureus": {"test_system": "Staphylococcus aureus", "assay": "Antimicrobial activity against Staphylococcus aureus MTCC 96 assessed as zone of inhibition by […]", "type": "functional"}, "Human betaherpesvirus 5": {"test_system": "Human betaherpesvirus 5", "assay": "Antiviral activity against HCMV infected in HFF cells assessed as reduction in viral replication", "type": "functional, organism-based", "conditions": "Human betaherpesvirus 5, HFF"}, "T47D": {"test_system": "T47D", "assay": "Antiproliferative activity against human T47D cells assessed as inhibition of cell growth incubated for 24 hrs by SRB assay", "type": "functional, cell-based"}, "Jurkat": {"test_system": "Jurkat", "assay": "Antiproliferative activity against human Jurkat cells assessed as inhibition of cell growth incubated for 24 hrs by SRB assay", "type": "functional, cell-based"}, "MCF7": {"test_system": "MCF7", "assay": "Antiproliferative activity against human MCF7 cells assessed as inhibition of cell growth incubated for 24 hrs by SRB assay", "type": "functional, cell-based", "conditions": "MCF7, 24 h"}, "A549": {"test_system": "A549", "assay": "Antiproliferative activity against human A549 cells assessed as inhibition of cell growth incubated for 24 hrs by SRB assay", "type": "functional, cell-based", "conditions": "A549, 24 h"}, "[2]": {"assay": "Antiproliferative activity against human SW707 cells assessed as inhibition of cell growth incubated for 24 hrs by SRB assay", "type": "functional, cell-based", "conditions": "SW707, 24 h"}, "LNCaP": {"test_system": "LNCaP", "assay": "Antiproliferative activity against human LNCaP cells assessed as inhibition of cell growth incubated for 24 hrs by SRB assay", "type": "functional, cell-based"}}, "data": [{"smiles": "O=C1c2cccc3cccc(c23)C(=O)N1CCCn1c(CCN(CCc2nc3ccccc3n2CCCN2C(=O)c3cccc4cccc(c34)C2=O)CCc2nc3ccccc3n2CCCN2C(=O)c3cccc4cccc(c34)C2=O)nc2ccccc21", "values": [{"measurement": "IC50", "setting": "HeLa", "result": 150000, "unit": "nM"}]}, {"smiles": "c1ccc(Nc2nc(Nc3ccccn3)nc(Nc3ccccn3)n2)nc1", "values": [{"measurement": "GI50", "setting": "[1]", "result": 49800, "unit": "nM"}]}, {"smiles": "O=C(N/N=C\\c1ccc(N(CCCl)CCCl)cc1)c1cc(C(=O)N/N=C\\c2ccc(N(CCCl)CCCl)cc2)cc(C(=O)N/N=C/c2ccc(N(CCCl)CCCl)cc2)c1", "values": [{"measurement": "IC50", "setting": "HepG2", "result": 25, "unit": "µmol"}]}, {"smiles": "c1ccc(Sc2nc(Sc3ccccn3)nc(Sc3ccccn3)n2)nc1", "values": [{"measurement": "IC50", "setting": "MDA-MB-468", "result": 216000, "unit": "nM"}, {"measurement": "GI50", "setting": "[1]", "result": 3170, "unit": "nM"}]}, {"smiles": "O=C(/C=C/c1ccccc1)c1ccc(Oc2nc(Oc3ccc(C(=O)/C=C/c4ccccc4)cc3)nc(Oc3ccc(C(=O)/C=C/c4ccccc4)cc3)n2)cc1", "values": [{"measurement": "inhibition zone (IZ)", "setting": "Bacillus subtilis", "result": 7, "unit": "mm"}, {"measurement": "inhibition zone (IZ)", "setting": "Escherichia coli", "result": 6, "unit": "mm"}, {"measurement": "inhibition zone (IZ)", "setting": "Micrococcus luteus", "result": 7, "unit": "mm"}]}, {"smiles": "c1ccc(Sc2nc(Sc3ccccc3)nc(Sc3ccccc3)n2)cc1", "values": [{"measurement": "GI50", "setting": "[1]", "result": "> 100000", "unit": "nM"}]}, {"smiles": "O=C(/C=C/c1ccc([N+](=O)[O-])cc1)c1ccc(Oc2nc(Oc3ccc(C(=O)/C=C/c4ccc([N+](=O)[O-])cc4)cc3)nc(Oc3ccc(C(=O)/C=C/c4ccc([N+](=O)[O-])cc4)cc3)n2)cc1", "values": [{"measurement": "inhibition zone (IZ)", "setting": "Bacillus subtilis", "result": 7, "unit": "mm"}, {"measurement": "inhibition zone (IZ)", "setting": "Escherichia coli", "result": 6, "unit": "mm"}, {"measurement": "inhibition zone (IZ)", "setting": "Micrococcus luteus", "result": 7, "unit": "mm"}, {"measurement": "inhibition zone (IZ)", "setting": "Pseudomonas aeruginosa", "result": 7, "unit": "mm"}]}, {"smiles": "NC(=S)N1N=C(c2ccc(Oc3nc(Oc4ccc(C5=NN(C(N)=S)C(c6ccccc6)C5)cc4)nc(Oc4ccc(C5=NN(C(N)=S)C(c6ccccc6)C5)cc4)n3)cc2)CC1c1ccccc1", "note": "(stereo not drawn)", "values": [{"measurement": "inhibition zone (IZ)", "setting": "Bacillus subtilis", "result": 11, "unit": "mm"}, {"measurement": "inhibition zone (IZ)", "setting": "Staphylococcus aureus", "result": 13, "unit": "mm"}, {"measurement": "inhibition zone (IZ)", "setting": "Micrococcus luteus", "result": 15, "unit": "mm"}]}, {"smiles": "C[C@@H]1CCC2[C@@H](C)[C@H](OC(=O)CCC(=O)OCC(COC(=O)CCC(=O)O[C@@H]3O[C@@H]4O[C@]5(C)CC[C@H]6[C@H](C)CCC([C@H]3C)[C@@]46OO5)COC(=O)CCC(=O)O[C@@H]3O[C@@H]4O[C@]5(C)CC[C@H]6[C@H](C)CCC([C@H]3C)[C@@]46OO5)O[C@@H]3O[C@]4(C)CC[C@@H]1[C@@]23OO4", "note": "(stereo partly drawn)", "values": [{"measurement": "EC50", "setting": "Human betaherpesvirus 5", "result": 530, "unit": "nM"}]}, {"smiles": "ClCCCN1CCN(c2nc(N3CCN(CCCl)CC3)nc(N3CCN(CCCl)CC3)n2)CC1", "values": [{"measurement": "IC50", "setting": "T47D", "result": 620, "unit": "nM"}, {"measurement": "IC50", "setting": "Jurkat", "result": 620, "unit": "nM"}, {"measurement": "IC50", "setting": "MCF7", "result": 18700, "unit": "nM"}, {"measurement": "IC50", "setting": "A549", "result": 620, "unit": "nM"}, {"measurement": "IC50", "setting": "[2]", "result": 620, "unit": "nM"}, {"measurement": "IC50", "setting": "LNCaP", "result": 620, "unit": "nM"}]}]}
